Assay results taken from patent US10519177B2, “Heterocyclic compounds and uses thereof” (Plexxikon Inc., priority 2013, dated 2019).
pIC50: −log10 of the molar value. Where two headings read alike, the source gives them in different places.

Legend:
MV-4-11 cells = assay: Oncology cell growth assay MV-4-11 (CellTiter Glo); assay type: cell-based
Excerpt: Published bromodomain inhibitors JQ1 and iBET 151 have shown activity in variety of cancer cells such leukemia and lymphoma, multiple myeloma cells, NUT midline carcinoma and glioblastoma cells (Dawson M A et al. 2011; Delmore J E 2011; Chen Z et al. 2013; Filippakopoulos P et al. 2010; Mertz J A et al. 2011; Ott C J et al. 2012). In this study, we test compounds in different cancer cell lines. MV-4-11 and MOLM-13 are AML cell lines harboring a MLL-AF4 and MLL-AF9 translocation, respectively. MM.1S is a multiple myeloma cell line. SK-N-AS, IMR-32 and SK-N-BE(2) are neuroblastoma cell lines. IMR-32 and SK-N-BE(2) cell lines harbor MYCN amplifications.
MV-4-11, MM.1S, IMR-32, SK-N-AS and SK-N-BE(2) were obtained from ATCC (IL, USA) and MOLM-13 were purchased from DSMZ (Braunschweig, German). Cells are cultured as recommended by their sources. For growth inhibition studies 3000 cells are seeded in wells of a 96-well plate in 75 μL of culture media. After several hours, growth media containing compounds of formula (I) are added to the wells. Compound at a maximal concentration of 5 mM was serially diluted 1:3 for a total of 8 point titration with DMSO as a control. A 1 μL aliquot of each dilution point is added to 249 μL growth media and 75 μL is added to each well containing cells, providing 10 μM compound at the maximum concentration point. The final concentration of DMSO in all wells is 0.2%. Cells are incubated for 72 hours, and 25 μL of CellTiter Glo Reagent (Promega GA, USA) is added to each well. Plates are shaken for approximately 10 minutes and chemiluminescent signal is read on Tecan microplate reader. The measured luminescence correlates directly with cell number.
All data is normalized to the mean of eight DMSO high control wells on each plate. A four parameter curve fit of the following formula was then applied: Y=a+(b−a)/(1+(x/c)^d) Where ‘a’ is the minimum, ‘b’ is the maximum, ‘c’ is the pIC50 and ‘d’ is the Hill slope. […] Myc Reporter Assay

bromodomain = assay: at least one of the bromodomain cell assays of Example 57; assay type: cell-based; conditions: read-out: IC50 in at least one of the bromodomain cell assays
[1] = at least one of the bromodomain cell assays described in Example 57
[2] = Homo sapiens, MV4-11, 72 h; read-out: Cell activity (IC50 μM) MV-4-11 3d-Growth
[3] = Homo sapiens, MV4-11, 72 h, read-out: Cell activity (IC50 μM) MV-4-11 3d-Growth

SMILES	pIC50 (bromodomain; [1])	further results
Cc1noc(C)c1-c1cnc2c(-c3cnn(C)c3)cn(C(=O)C3CCC(F)(F)CC3)c2c1 [P-0208]	> 5.00	IC50 (MV-4-11 cells; MV-4-11 3d-Growth; read-out: Cell activity (IC50 μM) MV-4-11 3d-Growth): 1 to 10 µM
[2H]C([2H])(C1CCC(F)(F)CC1)n1cc(-c2cnn(CC(F)(F)F)c2)c2ncc(-c3c(C)noc3C)cc21 [P-0221, 4-[1-[dideuterio-(4,4-difluorocyclohexyl)methyl]-3-[1-(2,2,2-trifluoroethyl)pyrazol-4-yl]pyrrolo[3,2-b]pyridin-6-yl]-3,5-dimethyl-isoxazole]	> 5.00	IC50 (MV-4-11 cells; [2]): < 1 µM
COc1ccc(-c2cnc3c(-c4cnn(C(F)F)c4)cn(CC4CCC(F)(F)CC4)c3c2)cn1 [P-0358, 1-[(4,4-difluorocyclohexyl)methyl]-3-[1-(difluoromethyl)pyrazol-4-yl]-6-(6-methoxy-3-pyridyl)pyrrolo[3,2-b]pyridine]	> 5.00	IC50 (MV-4-11 cells; [2]): 10 to 200 µM
CNC(=O)c1ccc(-c2cnc3ccn(CC4CCC(F)(F)CC4)c3c2)cn1 [P-0359, 5-[1-[(4,4-difluorocyclohexyl)methyl]pyrrolo[3,2-b]pyridin-6-yl]-N-methyl-pyridine-2-carboxamide]	> 5.00	IC50 (MV-4-11 cells; [2]): 10 to 200 µM
Cc1noc(C)c1-c1cnc2c(-c3ccc(C(=O)O)cc3)cn(C(C)c3ccccn3)c2c1 (stereo not drawn) [P-0369, 4-[6-(3,5-dimethylisoxazol-4-yl)-1-[1-(2-pyridyl)ethyl]pyrrolo[3,2-b]pyridin-3-yl]benzoic acid]		IC50 (MV-4-11 cells; [3]): < 1 µM; pIC50 (bromodomain): > 5.00
Cc1noc(C)c1-c1cnc2c(-c3ccc(C(=O)O)cc3)cn([C@H](C)c3ccccn3)c2c1 [P-0510, 4-[6-(3,5-dimethylisoxazol-4-yl)-1-[(1R)-1-(2-pyridyl)ethyl]pyrrolo[3,2-b]pyridin-3-yl]benzoic acid]		IC50 (MV-4-11 cells; [3]): < 1 µM; pIC50 (bromodomain): > 5.00
Cc1noc(C)c1-c1cnc2c(-c3ccc(C(=O)O)cc3)cn([C@@H](C)c3ccccn3)c2c1 [P-0511, 4-[6-(3,5-dimethylisoxazol-4-yl)-1-[(1S)-1-(2-pyridyl)ethyl]pyrrolo[3,2-b]pyridin-3-yl]benzoic acid]		IC50 (MV-4-11 cells; [3]): < 1 µM; pIC50 (bromodomain): > 5.00
Cc1noc(C)c1-c1cnc2c(-c3ccc(C(=O)O)cc3)cn(CC3CC4(CCC4)C3)c2c1 [P-0603, 4-[6-(3,5-dimethylisoxazol-4-yl)-1-(spiro[3.3]heptan-6-ylmethyl)pyrrolo[3,2-b]pyridin-3-yl]benzoic acid]	> 5.00	IC50 (MV-4-11 cells; Homo sapiens, MV4-11, 72 h; MV-4-11, 3d growth; read-out: Cell activity (IC50 μM) MV-4-11 3d-Growth): < 1 µM
Cc1noc(C)c1-c1cnc2c(-c3ccc4c(c3)CCOC4=O)cn(CC3CCC(F)(F)CC3)c2c1 [P-0798, 6-[1-[(4,4-difluorocyclohexyl)methyl]-6-(3,5-dimethylisoxazol-4-yl)pyrrolo[3,2-b]pyridin-3-yl]isochroman-1-one]	> 5.00	
Cc1noc(C)c1-c1cnc2c(-c3ccc4c(c3)CCOC4=O)cn(CC3CCCCC3)c2c1 [P-0799, 6-[1-(cyclohexylmethyl)-6-(3,5-dimethylisoxazol-4-yl)pyrrolo[3,2-b]pyridin-3-yl]isochroman-1-one]	> 5.00	
Cc1noc(C)c1-c1cnc2c(-c3ccc4c(c3)OC(=O)C4)cn(CC3CCC(F)(F)CC3)c2c1 [P-0800, 6-[1-[(4,4-difluorocyclohexyl)methyl]-6-(3,5-dimethylisoxazol-4-yl)pyrrolo[3,2-b]pyridin-3-yl]-3H-benzofuran-2-one]	> 5.00	
Cc1noc(C)c1-c1cnc2c(-c3ccc4c(c3)OC(=O)C4)cn(CC3CCCCC3)c2c1 [P-0801, 6-[1-(cyclohexylmethyl)-6-(3,5-dimethylisoxazol-4-yl)pyrrolo[3,2-b]pyridin-3-yl]-3H-benzofuran-2-one]	> 5.00	
Cc1noc(C)c1-c1cnc2c(-c3ccc(C(C)(C)C)cc3)cn(Cc3ccccn3)c2c1 [P-0804, 4-[3-(4-tert-butylphenyl)-1-(2-pyridylmethyl)pyrrolo[3,2-b]pyridin-6-yl]-3,5-dimethyl-isoxazole]	> 5.00	
Cc1ccc(-c2cn(CC3(F)CCC(F)(F)CC3)c3cc(-c4c(C)nnn4C)cnc23)cc1 [P-0808, 6-(3,5-dimethyltriazol-4-yl)-3-(p-tolyl)-1-[(1,4,4-trifluorocyclohexyl)methyl]pyrrolo[3,2-b]pyridine]	> 5.00	
Cc1nnn(C)c1-c1cnc2c(-c3ccc(C(C)(C)C)cc3)cn(CC3(F)CCC(F)(F)CC3)c2c1 [P-0809, 3-(4-tert-butylphenyl)-6-(3,5-dimethyltriazol-4-yl)-1-[(1,4,4-trifluorocyclohexyl)methyl]pyrrolo[3,2-b]pyridine]	> 5.00	
Cc1nnn(C)c1-c1cnc2c(-c3ccc(C(C)(C)C)cc3)cn(CC3CCC(F)(F)CC3)c2c1 [P-0810, 3-(4-tert-butylphenyl)-1-[(4,4-difluorocyclohexyl)methyl]-6-(3,5-dimethyltriazol-4-yl)pyrrolo[3,2-b]pyridine]	> 5.00	
Cc1nnn(C)c1-c1cnc2c(-c3ccc(CC(=O)O)cc3)cn(CC3CCC(F)(F)CC3)c2c1 [P-0811, 2-[4-[1-[(4,4-difluorocyclohexyl)methyl]-6-(3,5-dimethyltriazol-4-yl)pyrrolo[3,2-b]pyridin-3-yl]phenyl]acetic acid]	> 5.00	
Cc1nnn(C)c1-c1cnc2c(-c3ccc(CC(=O)O)cc3)cn(CC3(F)CCC(F)(F)CC3)c2c1 [P-0812, 2-[4-[6-(3,5-dimethyltriazol-4-yl)-1-[(1,4,4-trifluorocyclohexyl)methyl]pyrrolo[3,2-b]pyridin-3-yl]phenyl]acetic acid]	> 5.00	

Continued, in another order:

pIC50 (bromodomain; [1])	SMILES	further results
> 5.00	Cc1noc(C)c1-c1cnc2c(-c3ccc(C(C)(C)C)cc3)cn([C@@H](c3ccccc3)c3ccccn3)c2c1 [P-0813, 4-[3-(4-tert-butylphenyl)-1-[(S)-phenyl(2-pyridyl)methyl]pyrrolo[3,2-b]pyridin-6-yl]-3,5-dimethyl-isoxazole]	
> 5.00	Cc1noc(C)c1-c1cnc2c(-c3ccc(C(C)(C)C)cc3)cn([C@H](c3ccccc3)c3ccccn3)c2c1 [P-0814, 4-[3-(4-tert-butylphenyl)-1-[(R)-phenyl(2-pyridyl)methyl]pyrrolo[3,2-b]pyridin-6-yl]-3,5-dimethyl-isoxazole]	
> 5.00	Cc1noc(C)c1-c1cnc2c(-c3ccc(C(=O)O)cc3)cn([C@H](c3ccccn3)C3CCCCC3)c2c1 [P-0815, 4-[1-[(S)-cyclohexyl(2-pyridyl)methyl]-6-(3,5-dimethylisoxazol-4-yl)pyrrolo[3,2-b]pyridin-3-yl]benzoic acid]	
> 5.00	Cc1noc(C)c1-c1cnc2c(-c3ccc(C(=O)O)cc3)cn([C@@H](c3ccccn3)C3CCCCC3)c2c1 [P-0816, 4-[1-[(R)-cyclohexyl(2-pyridyl)methyl]-6-(3,5-dimethy7lisoxazol-4-yl)pyrrolo[3,2-b]pyridin-3-yl]benzoic acid]	
> 5.00	Cc1ccc(-c2cn([C@@H](c3ccccn3)C3CCCCC3)c3cc(-c4c(C)noc4C)cnc23)cc1 [P-0817, 4-[1-[(R)-cyclohexyl(2-pyridyl)methyl]-3-(p-tolyl)pyrrolo[3,2-b]pyridin-6-yl]-3,5-dimethyl-isoxazole]	
> 5.00	Cc1ccc(-c2cn([C@H](c3ccccn3)C3CCCCC3)c3cc(-c4c(C)noc4C)cnc23)cc1 [P-0818, 4-[1-[(S)-cyclohexyl(2-pyridyl)methyl]-3-(p-tolyl)pyrrolo[3,2-b]pyridin-6-yl]-3,5-dimethyl-isoxazole]	
> 5.00	Cc1noc(C)c1-c1cnc2c(-c3ccc(C(=O)O)cc3)cn([C@H](c3ccccn3)C3CCCC3)c2c1 [P-0819, 4-[1-[(S)-cyclopentyl(2-pyridyl)methyl]-6-(3,5-dimethylisoxazol-4-yl)pyrrolo[3,2-b]pyridin-3-yl]benzoic acid]	
> 5.00	Cc1noc(C)c1-c1cnc2c(-c3ccc(C(=O)O)cc3)cn([C@@H](c3ccccn3)C3CCCC3)c2c1 [P-0820, 4-[1-[(R)-cyclopentyl(2-pyridyl)methyl]-6-(3,5-dimethylisoxazol-4-yl)pyrrolo[3,2-b]pyridin-3-yl]benzoic acid]	
> 5.00	Cc1ccc(-c2cn([C@@H](c3ccccn3)C3CCCC3)c3cc(-c4c(C)noc4C)cnc23)cc1 [P-0821, 4-[1-[(R)-cyclopentyl(2-pyridyl)methyl]-3-(p-tolyl)pyrrolo[3,2-b]pyridin-6-yl]-3,5-dimethyl-isoxazole]	
> 5.00	Cc1ccc(-c2cn([C@H](c3ccccn3)C3CCCC3)c3cc(-c4c(C)noc4C)cnc23)cc1 [P-0822, 4-[1-[(S)-cyclopentyl(2-pyridyl)methyl]-3-(p-tolyl)pyrrolo[3,2-b]pyridin-6-yl]-3,5-dimethyl-isoxazole]	
